Test results published in ChEMBL document CHEMBL3046902, “New dihydropyridine derivatives: anti-inflammatory, analgesic and docking studies” (2013).

What was measured:
Format in all cases: functional
Rattus norvegicus [1] = organism: Rattus norvegicus; assay: Analgesic activity in Rattus norvegicus Wistar (rat) assessed as tail flick latency time after 60 min by tail immersion test (reference value: 3.34 +/- 0.005 secs)
Rattus norvegicus [2] = organism: Rattus norvegicus; assay: Analgesic activity in Rattus norvegicus Wistar (rat) assessed as tail flick latency time after 90 min by tail immersion test (reference value: 3.25 +/- 0.005 secs)
Rattus norvegicus [3] = assay: Anti-inflammatory activity in Rattus norvegicus Wistar (rat) assessed as inhibition of carrageenan-induced paw edema at 20 mg/kg administered 30 min prior to carrageenan challenge measured after 0.5 hr by plethysmographic analysis relative to untreated control
Rattus norvegicus [4] = organism: Rattus norvegicus; assay: Analgesic activity in Rattus norvegicus Wistar (rat) assessed as tail flick latency time after 30 min by tail immersion test (reference value: 3.23 +/- 0.005 secs)
Rattus norvegicus [5] = assay: Anti-inflammatory activity in Rattus norvegicus Wistar (rat) assessed as inhibition of carrageenan-induced paw edema at 20 mg/kg administered 30 min prior to carrageenan challenge measured after 2 hr by plethysmographic analysis relative to untreated control
Rattus norvegicus [6] = assay: Anti-inflammatory activity in Rattus norvegicus Wistar (rat) assessed as inhibition of carrageenan-induced paw edema at 20 mg/kg administered 30 min prior to carrageenan challenge measured after 1 hr by plethysmographic analysis relative to untreated control
Rattus norvegicus [7] = assay: Anti-inflammatory activity in Rattus norvegicus Wistar (rat) assessed as inhibition of carrageenan-induced paw edema at 20 mg/kg administered 30 min prior to carrageenan challenge measured after 3 hr by plethysmographic analysis relative to untreated control

Work on `CCOC(=O)C1=C(C)NC(C)=C(C(=O)OCC)C1c1ccc(OCc2nnc(S)o2)cc1` yielded a Time (Rattus norvegicus [1]) of 6.07 s, a Time (Rattus norvegicus [2]) of 6.97 s and an inhibition in vivo at 20 mg/kg (Rattus norvegicus [3]) of 42.4%. It also gave a Time (Rattus norvegicus [4]) of 4.97 s and an inhibition in vivo at 20 mg/kg (Rattus norvegicus [5]) of 61.7%.
For `CCOC(=O)C1=C(C)NC(C)=C(C(=O)OCC)C1c1ccc(OCC(=O)Nc2ccc(C)cc2)cc1`, the inhibition in vivo at 20 mg/kg (Rattus norvegicus [3]) was 43.9% and the inhibition in vivo at 20 mg/kg (Rattus norvegicus [5]) was 62.2%.
`CCOC(=O)C1=C(C)NC(C)=C(C(=O)OCC)C1c1ccc(OCC(=O)NCc2ccccc2)cc1` showed an inhibition in vivo at 20 mg/kg (Rattus norvegicus [6]) of 16.1% and an inhibition in vivo at 20 mg/kg (Rattus norvegicus [5]) of 8.9%.
`CCOC(=O)C1=C(C)NC(C)=C(C(=O)OCC)C1c1ccc(OCC(=O)NNC(=O)CCC(=O)O)cc1` showed a Time (Rattus norvegicus [1]) of 6.07 s, a Time (Rattus norvegicus [2]) of 6.87 s and a Time (Rattus norvegicus [4]) of 4.96 s.
In the case of `O=C(O)Cc1ccccc1Nc1c(Cl)cccc1Cl` [DICLOFENAC SODIUM], the inhibition in vivo at 20 mg/kg (Rattus norvegicus [6]) is reported as 41%, the inhibition in vivo at 20 mg/kg (Rattus norvegicus [7]) is reported as 65.3% and the inhibition in vivo at 20 mg/kg (Rattus norvegicus [3]) is reported as 16.7%. For the same compound, the inhibition in vivo at 20 mg/kg (Rattus norvegicus [5]) was 61.1%.
In the case of `CCOC(=O)C1=C(C)NC(C)=C(C(=O)OCC)C1c1ccc(OCC(=O)NNC(=O)c2ccsc2Cl)cc1`, the Time (Rattus norvegicus [1]) is reported as 5.74 s, the Time (Rattus norvegicus [2]) is reported as 6.46 s and the inhibition in vivo at 20 mg/kg (Rattus norvegicus [3]) is reported as 12.9%. It also gave a Time (Rattus norvegicus [4]) of 4.85 s.
Work on `CCOC(=O)C1=C(C)NC(C)=C(C(=O)OCC)C1c1ccc(OCC(=O)NN2C(=O)c3ccccc3C2=O)cc1` yielded a Time (Rattus norvegicus [1]) of 6.16 s, a Time (Rattus norvegicus [2]) of 7.21 s and a Time (Rattus norvegicus [4]) of 5.03 s.
In the case of `CCOC(=O)C1=C(C)NC(C)=C(C(=O)OCC)C1c1ccc(OCC(=O)NNC(=O)c2sccc2Cl)cc1`, the Time (Rattus norvegicus [1]) is reported as 5.67 s, the Time (Rattus norvegicus [2]) is reported as 6.45 s and the Time (Rattus norvegicus [4]) is reported as 4.34 s. The inhibition in vivo at 20 mg/kg (Rattus norvegicus [5]) was 57.2%.
With `O=C([O-])Cc1ccccc1Nc1c(Cl)cccc1Cl.[K+]` [DICLOFENAC POTASSIUM] the Time (Rattus norvegicus [1]) was 6.95 s, the Time (Rattus norvegicus [2]) was 7.45 s and the Time (Rattus norvegicus [4]) was 6.25 s.
In the case of `CCOC(=O)C1=C(C)NC(C)=C(C(=O)OCC)C1c1ccc(OCC(=O)Nc2nc3ccccc3s2)cc1`, the Time (Rattus norvegicus [1]) is reported as 6.03 s, the inhibition in vivo at 20 mg/kg (Rattus norvegicus [3]) is reported as 47.7% and the Time (Rattus norvegicus [4]) is reported as 5.28 s. It also gave an inhibition in vivo at 20 mg/kg (Rattus norvegicus [5]) of 64.5%.
`CCOC(=O)C1=C(C)NC(C)=C(C(=O)OCC)C1c1ccc(OCC(=O)NNC(=O)c2ccccc2)cc1` was tested, and the Time (Rattus norvegicus [1]) was 5.87 s, the Time (Rattus norvegicus [2]) was 6.37 s and the inhibition in vivo at 20 mg/kg (Rattus norvegicus [3]) was 9.1%. The Time (Rattus norvegicus [4]) was 4.62 s and the inhibition in vivo at 20 mg/kg (Rattus norvegicus [5]) was 44.5%.
`CCOC(=O)C1=C(C)NC(C)=C(C(=O)OCC)C1c1ccc(OCC(=O)NNC(=O)c2cccs2)cc1` showed a Time (Rattus norvegicus [1]) of 6.23 s, a Time (Rattus norvegicus [2]) of 7.02 s and an inhibition in vivo at 20 mg/kg (Rattus norvegicus [3]) of 44%. The inhibition in vivo at 20 mg/kg (Rattus norvegicus [5]) was 62.2%.
`CCOC(=O)C1=C(C)NC(C)=C(C(=O)OCC)C1c1ccc(OCC(=O)Nc2c(C)cccc2C)cc1` was tested, and the inhibition in vivo at 20 mg/kg (Rattus norvegicus [3]) was 15.9% and the inhibition in vivo at 20 mg/kg (Rattus norvegicus [5]) was 47.8%.
In the case of `CCOC(=O)C1=C(C)NC(C)=C(C(=O)OCC)C1c1ccc(OCC(=O)n2nc(C)cc2C)cc1`, the Time (Rattus norvegicus [1]) is reported as 5.93 s, the Time (Rattus norvegicus [2]) is reported as 6.78 s and the inhibition in vivo at 20 mg/kg (Rattus norvegicus [3]) is reported as 13.7%. The Time (Rattus norvegicus [4]) was 4.76 s.
